Measurements reported in patent US20220218664A1, “DRUG AND METHOD FOR TREATING OR PREVENTING COMPLICATIONS FROM DIABETES, USING SAID DRUG” (TMS Co., Ltd., priority 2019, published 2022).

Experiments:
Type in all cases: in vivo, C57BL/6J male mice
[1] = test system: streptozotocin-induced diabetic mice; assay: Blood glucose level (BS) in streptozotocin-induced diabetic mice; settings: 10 mg/kg i.p. once a day
Experimental: (§1) 9-week-old C57BL/6J male mice were purchased and familiarized with an animal facility for 1 week. 200 mg/kg of streptozotocin (streptozotocin; STZ) was administered […] into the peritoneal cavity of 10-week-old mice to prepare streptozotocin-induced diabetic mice (hereinafter also referred to as “STZ administration week 0”). One week after the administration of streptozotocin, blood was collected from the tail vein of the mice, and the blood glucose level (BS) was measured using an automatic blood glucose measuring device (product name: Medisafe (trademark) Mini GR-102, made by Terumo (Co)). Mice having a blood glucose level of 400 mg/dL or more were determined to be diabetic mice.
(§2) The SMTP-44D groups, the edaravone group, and the pregabalin group were administered SMTP-44D (0.3 mg/kg, 3 mg/kg, or 30 mg/kg doses, respectively), edaravone (10 mg/kg dose), or pregabalin (10 mg/kg dose) into the peritoneal cavity once a day for 3 consecutive weeks from the day following the first week to the fourth week after STZ administration.
(§3) For the above-mentioned STZ group, SMTP-44D groups, edaravone group, pregabalin group, and control group mice, the following measurements were conducted every week from the 0th week, which began on the day when streptozotocin (STZ) was administered, to the 4th week (that is, a total of five times). As algesia tests, the following von Frey test and hot plate test were conducted, and hind plantar blood flow, body weight (BW), and blood glucose level (BS) were measured using the above-mentioned automatic blood glucose measure device. Note, for example, the 0th week represents the 0th day. That is, the measurements were conducted on the 0th, 7th, 14th, 21st, and 28th days.

[2] = Body weight (BW) in streptozotocin-induced diabetic mice; settings: 10 mg/kg i.p. once a day
Experimental: as §1, §2, §3

IL-6 = assay: Inflammatory cytokine IL-6 in sciatic nerve (ELISA); settings: 10 mg/kg i.p. once a day, 4th week
Experimental: as §1, §2
(§4) The sciatic nerves of the above-mentioned STZ group, SMTP-44D group (30 mg/kg), edaravone group, pregabalin group, and control group mice on the 4th week were homogenized using the RIPA buffer containing a protease inhibitor cocktail. Moreover, centrifugation was conducted at 4° C. for 15 minutes at 10,000 g, and the supernatant was collected and used for measuring TNF-α concentration (pg/mL), IL-1β concentration (pg/mL), IL-6 concentration (pg/mL), and total protein concentration (μg/mL), respectively. An ELISA assay kit was used for the TNF-α, IL-1β, and IL-6 concentrations. The total protein concentration was measured by using a Pierce (trademark) BCA Protein Assay Kit. The inflammatory cytokine level (pg/mg protein) in the total protein was calculated from the TNF-α concentration (pg/mL), IL-1β concentration (pg/mL), and IL-6 concentration (pg/mL), and total protein concentration (μg/mL).

[3] = test system: streptozotocin-induced diabetic mice; assay: Hot plate test: evaluating thermal stimulus; settings: 10 mg/kg i.p. once a day
Experimental: as §1, §2
The above-mentioned STZ group, SMTP-44D groups, edaravone group, pregabalin group, and control group mice were put in grid-like boxes, respectively, and were left for 30 minutes. After having been left, an acrylic disc (diameter: 20 cm; height (that is, thickness of the acrylic disc): […]) was placed on an EC hot plate (model number: EC1200) maintained at 49 to 50° C., and the mice were put on the acrylic disc. The measurements were started after the mice landed on the EC hot plate. The times from the mice landing to their action to jump or lick their hind legs were evaluated as thermal thresholds (seconds: s). Note, to avoid burns on their plantae, the measurements were ceased 30 seconds after beginning. The measurements were conducted three times at 30-minute intervals. A mean value of three thermal thresholds (seconds: s) was calculated for 1 mouse, and then a mean value of the 12 mice for the respective groups was found.

TNF-α = assay: Inflammatory cytokine TNF-α in sciatic nerve (ELISA); settings: 10 mg/kg i.p. once a day, 4th week
Experimental: as §1, §2, §4

[4] = 0th week (before dosing), listed as pregabalin
[5] = 1st week (before dosing), listed as pregabalin

CC(C)C[C@H](CN)CC(=O)O [Pregabalin, pregabalin]
BS (blood glucose level) ([1]; 0th week (before dosing)): 192.2 ± 5.3 mg/dL
BS (blood glucose level) [1, 4]: 192.2 ± 5.3 mg/dL
BS (blood glucose level) ([1]; 1st week (before dosing)): 562.7 ± 25.6 mg/dL
BS (blood glucose level) [1, 5]: 562.7 ± 25.6 mg/dL
BS (blood glucose level) ([1]; 2nd week): 639.1 ± 44.7 mg/dL
BS (blood glucose level) ([1]; 2nd week, listed as pregabalin): 639.1 ± 44.7 mg/dL
BS (blood glucose level) ([1]; 3rd week, listed as pregabalin): 657.2 ± 38.7 mg/dL
BS (blood glucose level) ([1]; 4th week): 582.3 ± 38.2 mg/dL
BS (blood glucose level) ([1]; 4th week, listed as pregabalin): 582.3 ± 38.2 mg/dL
Body weight decrease between the 0th week and 4th week [2]: 1.4 g
BW (body weight) ([2]; 0th week (before dosing)): 21.8 ± 0.3 g
BW (body weight) [2, 4]: 21.8 ± 0.3 g
BW (body weight) ([2]; 1st week (before dosing)): 21.4 ± 0.3 g
BW (body weight) [2, 5]: 21.4 ± 0.3 g
BW (body weight) ([2]; 2nd week): 21.3 ± 0.4 g
BW (body weight) ([2]; 2nd week, listed as pregabalin): 21.3 ± 0.4 g
BW (body weight) ([2]; 3rd week): 21.0 ± 0.2 g
BW (body weight) ([2]; 3rd week, listed as pregabalin): 21.0 ± 0.2 g
BW (body weight) ([2]; 4th week): 20.4 ± 0.2 g
BW (body weight) ([2]; 4th week, listed as pregabalin): 20.4 ± 0.2 g
IL-6 (IL-6): 166.60 ± 13.57 pg/mg protein
IL-6 (IL-6; listed as pregabalin): 166.60±13.57 pg/mg protein
Hot plate test thermal threshold ([3]; 0th week (before dosing)): 22.2 ± 0.8 s
Hot plate test thermal threshold [3, 4]: 22.2 ± 0.8 s
Hot plate test thermal threshold ([3]; 1st week (before dosing)): 15.7 ± 0.7 s
Hot plate test thermal threshold [3, 5]: 15.7 ± 0.7 s
Hot plate test thermal threshold ([3]; 2nd week): 17.3 ± 1.1 s
Hot plate test thermal threshold ([3]; 2nd week, listed as pregabalin): 17.3 ± 1.1 s
Hot plate test thermal threshold ([3]; 3rd week): 17.7 ± 0.9 s
Hot plate test thermal threshold ([3]; 3rd week, listed as pregabalin): 17.7 ± 0.9 s
Hot plate test thermal threshold ([3]; 4th week): 17.9 ± 1.1 s
Hot plate test thermal threshold ([3]; 4th week, listed as pregabalin): 17.9 ± 1.1 s
TNF-α (TNF-α): 14.53 ± 1.41 pg/mg protein
TNF-α (TNF-α; listed as pregabalin): 14.53±1.41 pg/mg protein
